According to US20250114389A1, “NUCLEOSIDES AND NUCLEOTIDES ANALOGS AS ANTIVIRAL AGENTS” (Emory University, priority 2021, published 2025):
pEC50: −log10 of the molar value. Like-named read-outs stand apart in the source and are kept apart here.

Legend:
Type in all cases: cell-based
SARS-CoV2 variant Beta [1] = assay: microbe, parasite or virus in culture
SARS-CoV2 variant Gamma [2] = assay: microbe, parasite or virus in culture
SARS-CoV2 variant Delta [3] = assay: microbe, parasite or virus in culture
SARS-CoV2 Lineage A (Wa) [4] = assay: Antiviral activity against SARS-CoV2 Lineage A (Wa) in Vero
SARS-CoV2 variant Alpha [5] = assay: microbe, parasite or virus in culture
SARS-CoV2 variant Beta [6] = assay: microbe, parasite or virus in culture; remark: listed apart in the source
SARS-CoV2 variant Gamma [7] = assay: microbe, parasite or virus in culture; remark: listed apart in the source
SARS-CoV2 variant Delta [8] = assay: microbe, parasite or virus in culture; remark: listed apart in the source
[9] = tested on: SARS-CoV2 Lineage A (Eng); assay: Antiviral activity against SARS-CoV2 Lineage A (Eng) in Calu3
SARS-CoV2 Lineage A (Wa) [10] = assay: Antiviral activity against SARS-CoV2 Lineage A (Wa) in Calu3
SARS-CoV2 variant Alpha [11] = assay: microbe, parasite or virus in culture; remark: listed apart in the source
[12] = Severe acute respiratory syndrome coronavirus 2, Vero, read-out: Antiviral Activity Against SARS-CoV2 Variants in Vero, first value column
[13] = Severe acute respiratory syndrome coronavirus 2, Calu-3, Calu3, read-out: Antiviral Activity Against SARS-CoV2 Variants in Calu3, first value column
[14] = Severe acute respiratory syndrome coronavirus 2, Calu-3, read-out: Antiviral Activity Against SARS-CoV2 Variants in Calu3, first value column

| Structure (SMILES) | Antiviral Activity Against SARS-CoV2 Variants in Vero (SARS-CoV2 variant Beta [1]) [µM] | Antiviral Activity Against SARS-CoV2 Variants in Vero (SARS-CoV2 variant Gamma [2]) [µM] | Antiviral Activity Against SARS-CoV2 Variants in Vero (SARS-CoV2 variant Delta [3]) [µM] | Antiviral Activity Against SARS-CoV2 Variants in Vero (SARS-CoV2 Lineage A (Wa) [4]) [µM] | Antiviral Activity Against SARS-CoV2 Variants in Vero (SARS-CoV2 variant Alpha [5]) [µM] | Antiviral Activity Against SARS-CoV2 Variants in Calu3, second value column (SARS-CoV2 variant Beta [6]) [µM] | Antiviral Activity Against SARS-CoV2 Variants in Calu3, second value column (SARS-CoV2 variant Delta [8]) [µM] | Antiviral Activity Against SARS-CoV2 Variants in Calu3, second value column [9] [µM] | Antiviral Activity Against SARS-CoV2 Variants in Calu3, second value column (SARS-CoV2 Lineage A (Wa) [10]) [µM] | Antiviral Activity Against SARS-CoV2 Variants in Calu3, second value column (SARS-CoV2 variant Alpha [11]) [µM] | other results |
| --- | --- | --- | --- | --- | --- | --- | --- | --- | --- | --- | --- |
| N#C[C@@]1(n2ccc(N)nc2=O)O[C@H](CO)[C@@H](O)[C@H]1O [Compound A, (2R,3R,4S,5R)-2-(4-amino-2-oxopyrimidin-1(2H)-yl)-3,4-dihydroxy-5-(hydroxymethyl)-tetrahydrofuran-2-carbonitrile] | 1.4 | 1.0 | 0.3 | 0.4 | 1.2 | 1.2 | 0.1 | 3.6 | 4.5 | 0.4 | pEC50 (SARS-CoV2 variant Beta [1]; [12]): 6.52; pEC50 (SARS-CoV2 variant Gamma [2]; [12]): 6.10; pEC50 (SARS-CoV2 variant Delta [3]; [12]): 6.70; pEC50 (SARS-CoV2 Lineage A (Wa) [4]; Severe acute respiratory syndrome coronavirus 2, read-out: Antiviral Activity Against SARS-CoV2 Variants in Vero, first value column): 6.70; pEC50 (SARS-CoV2 variant Alpha [5]; [12]): 6.10; pEC50 (SARS-CoV2 variant Beta [6]; [13]): 6.52; Antiviral Activity Against SARS-CoV2 Variants in Calu3, second value column (SARS-CoV2 variant Gamma [7]): 1.2 µM; pEC50 (SARS-CoV2 variant Gamma [7]; [13]): 5.96; pEC50 (SARS-CoV2 variant Delta [8]; [13]): 7.40; pEC50 [9, 14]: 5.74; pEC50 (SARS-CoV2 Lineage A (Wa) [10]; [14]): 5.77; pEC50 (SARS-CoV2 variant Alpha [11]; [13]): 7.00 |
| CCC(CC)COC(=O)[C@H](C)N[P@](=O)(OC[C@H]1O[C@@](C#N)(c2ccc3c(N)ncnn23)[C@H](O)[C@@H]1O)Oc1ccccc1 [Remdesivir, reference compound] | 1.6 | 2.2 | 2.1 | 2.9 | 0.6 | 0.4 | 0.3 | 2.3 | 0.3 | 0.4 | – |
